# Source: patent US6482921B1, “Uridyl peptide antibiotic (UPA) derivatives, their synthesis and use” (Essential Therapeutics, Inc., priority 1999, dated 2002)
# What was measured:
# Assay type in all cases: cell-based
# [1] = test system: Escherichia Coli MC 4100 AcrAB; assay: MIC broth microdilution, E. coli MC 4100 AcrAB (ΔAcrAB); details: E. coli AcrAB
# [2] = test system: Mycobacterium tuberculosis H37Rv; assay: MIC agar dilution, M. tuberculosis H37Rv
# [3] = test system: Pseudomonas aeruginosa PAM 1323; assay: MIC broth microdilution, P. aeruginosa PAM 1323 (medium level UPA resistance)
# Escherichia Coli MC 4100 = assay: MIC broth microdilution, E. coli MC 4100 (wild type); details: E. coli MC 4100
# [4] = test system: Pasteurella multocida pm002; assay: MIC broth microdilution, P. multocida pm002 (wild type)
# [5] = test system: Staphylococcus aureus ATCC 29213; assay: MIC broth microdilution, S. aureus ATCC 29213 (wild type); details: S. aureus ATCC 29213
# [6] = test system: Pseudomonas aeruginosa PAM 1154; assay: MIC broth microdilution, P. aeruginosa PAM 1154 (OprM::Hg); details: P. aeruginosa PAM 1154 OprM::Hg
# [7] = test system: Escherichia Coli MC 4100 AcrAB UPA3r; assay: MIC broth microdilution, E. coli MC 4100 AcrAB UPA3r (ΔAcrAB, UPA resistant); details: E. coli AcrAB UPA3^r
# [8] = test system: Pseudomonas aeruginosa PAM 1020; assay: MIC broth microdilution, P. aeruginosa PAM 1020 (wild type); details: P. aeruginosa PAM 1020
# [9] = test system: Pseudomonas aeruginosa PAM 1135; assay: MIC broth microdilution, P. aeruginosa PAM 1135 (high level UPA resistance); details: P. aeruginosa PAM 1135 UPA1^r
# [10] = test system: Staphylococcus aureus 8325-4; assay: MIC broth microdilution, S. aureus 8325-4 (wild type); details: S. aureus 8325-4
# [11] = test system: Haemophilus influenzae hf032; assay: MIC broth microdilution, H. influenzae hf032; details: strain hf032, Haemophilus test medium
# Protocol: (§1) In a second panel, Table 5, compounds of this invention were tested for their antimicrobial activity against the bacterial strains H. influenzae hf032 and S. pneumoniae ATCC 49629.
# (§2) As above, a broth microdilution assay was used but the culture media were varied according to the specific growth requirements of each bacteria according to the recommendations of the NCCLS. For instance, susceptibility testing for H, influenzae was performed using Haemophilus test medium (HTM-Remel, cat. #20-042). For S. pneumoniae, cation adjusted MHB (CAMHB) containing 4% lysed horse blood was used. MICs were determined as described above.
# [12] = test system: Streptococcus pneumoniae ATCC 49619; assay: MIC broth microdilution, S. pneumoniae ATCC 49619; details: ATCC 49619, CAMHB containing 4% lysed horse blood
# Protocol: as §1, §2
# [13] = test system: Mycobacterium tuberculosis TN913; assay: MIC agar dilution, M. tuberculosis TN913
compound,measurement,setting,value
"CSCCC(NC(=O)NC(Cc1ccc(O)cc1)C(=O)O)C(=O)NC(C(=O)NCC1CC(O)C(n2ccc(=O)[nH]c2=O)O1)C(C)N(C)C(=O)C(C)N [Compound 115, 1-[5′[(2S,3S)-N^3-L-Alanyl-N^2-[N-[[(1S)-1-carboxy-4-hydroxyphenethyl)-carbamoyl]-L-methionyl]-N^3-methyl-2,3-diaminobutyramido]-3′,5′-dideoxy-α-L-arabinofuranosyl]uracil]",MIC (μg/ml) Broth microdilution,[1],8 µg/mL
same,MIC H37RV (SENSITIVE),[2],>30 µg/mL
same,MIC (μg/ml) Broth microdilution,[3],256 µg/mL
same,MIC (μg/ml) Broth microdilution,Escherichia Coli MC 4100,>512 µg/mL
same,MIC (μg/ml) Broth microdilution,[4],128 µg/mL
same,MIC (μg/ml) Broth microdilution,[5],>512 µg/mL
same,MIC (μg/ml) Broth microdilution,[6],2 µg/mL
same,MIC (μg/ml) Broth microdilution,[7],32 µg/mL
same,MIC (μg/ml) Broth microdilution,[8],4 µg/mL
same,MIC (μg/ml) Broth microdilution,[9],>512 µg/mL
same,MIC (μg/ml) Broth microdilution,[10],>512 µg/mL
same,MIC Broth microdilution H. influenzae,[11],16 µg/mL
same,MIC Broth microdilution S. pneumoniae,[12],>512 µg/mL
same,MIC TN913 (SENSITIVE),[13],>30 µg/mL
